The values that follow come from patent US20240316067A1, “METHODS OF DECREASING HEPARAN SULFATE EXPRESSION USING EXT1 INHIBITORS” (priority 2023, published 2024).

Holding throughout (assay type): cell-based
In assay [1] the test system is HS3ST1. The assay can be described thus: HS3ST1 reporter cell line, HTS of FDA-approved drug library (EC-50, CCK-8). The settings on record: a listed drug is a confirmed inhibitor. From the text:
FIGS. 13A-13C show EC-50 and CCK-8 experiments on HS3ST1 using bortezomib.
FIGS. 14A-14C show EC-50 and CCK-8 experiments on HS3ST1 using zinc pyrithione.
FIGS. 15A-15B show EC-50 and CCK-8 experiments on HS3ST1 using artesunate.
(§1) Using a stable cell line with promoter luciferase reporter of the HS-biosynthetic gene EXT1, the EXT1 and other HS-biosynthetic gene reporter cell lines were screened with an FDA-approved drug library. (FIG. 1; FIG. 2)

Assay [2] concerns EXT1. Kind of assay: EXT1 promoter luciferase reporter stable cell line, HTS of FDA-approved drug library (EC-50, CCK-8). The settings on record: for confirmed candidates when screened with respect to EXT1: EC-50 and CCK-8, 10 μL; for Inhibition Candidate, confirmation at lower concentration: EXT1 cell line, 2nd confirmatory screen, a listed drug is a confirmed inhibitor.
Description: as §1
(In general: A reporter such as luciferase makes a cellular process visible.)

Assay [3] has as its system HS3ST4. Kind of assay: HS3ST4 reporter cell line, HTS of FDA-approved drug library. As to conditions: a listed drug is a confirmed inhibitor.
Description: as §1

For the compound `C[C@H]1[C@H](OC(=O)CCC(=O)O)O[C@@H]2O[C@@]3(C)CC[C@H]4[C@H](C)CC[C@@H]1[C@@]24OO3` [Artesunate], the “Inhibition Candidate, confirmation at lower concentration” value in assay [1] is “A1- Artesunate”. Same read-out and setting: the value for `CC(C)C[C@H](NC(=O)[C@H](Cc1ccccc1)NC(=O)c1cnccn1)B(O)O` [Bortezomib] was “B3- Bortezomib”. As to `C=C1/C(=C\C=C2/CCC[C@]3(C)[C@@H]([C@H](C)CCCC(C)(C)O)CC[C@@H]23)C[C@@H](O)C[C@@H]1O` [Calcitriol, 1, 25-dihydroxycholecalciferol], in assay [2], the “confirmed candidates when screened with respect to EXT1” value is “confirmed candidates” and the “Inhibition Candidate, confirmation at lower concentration” value is “B2- Calcitriol”. As to `COc1ccc(/C=C\c2cc(OC)c(OC)c(OC)c2)cc1OP(=O)(O)O` [Frosbretabullin, Fosbretabulin], the “Inhibition Candidate, confirmation at lower concentration” value in assay [3] was “D5- Frosbretabullin”.

For `O=C(Nc1ccc([N+](=O)[O-])cc1Cl)c1cc(Cl)ccc1O` [Niclosamide], in assay [3], the “Inhibition Candidate, confirmation at lower concentration” value is listed as “A6- Niclosamide”. As to `C=C1CC[C@H](O)C/C1=C/C=C1\CCC[C@]2(C)[C@@H]([C@H](C)CCCC(C)C)CC[C@@H]12` [Vitamin D3, cholecalciferol], in assay [2], the “confirmed candidates when screened with respect to EXT1” value is listed as “confirmed candidates” and the “Inhibition Candidate, confirmation at lower concentration” value is recorded as “D5- Vitamin D3”. Also, the “Inhibition Candidate, confirmation at lower concentration” value in assay [2] (listed as vitamin D3) was “confirmed to inhibit at low doses”.

Turning to Zinc pyrithione, the “Inhibition Candidate, confirmation at lower concentration” value in assay [1] is “D6- Zinc Pyrithione”.
